Laboratory results: patent US20090012178A1, “Benzoxazocines and Their Therapeutic Use” (priority 2005, published 2009)
Where two headings read alike, the source gives them in different places.

Tests used:
[1] = Mouse hotplate model of acute analgesia; format: in vivo; conditions: for Paw Latency (Sec) above control: 60 min before testing, * = statistical significance
Experimental: Compounds of the invention have also been evaluated in the mouse hotplate model of acute analgesia. Mice placed on a metallic hot plate will respond by paw licking or by jumping up from the plate (Eddy et al., 1950—J. Pharmacol. Exp. Ther.; 98:121-137). Analgesics increase nociceptive reaction latency.
Mice (17-23 g male Swiss mice ICO: OF1) were placed on a metallic hot plate maintained at 56±0.2° C. The nociceptive reaction latency, characterized by a licking reflex of the forepaws or by a jumping off the hot plate, was recorded. Plate heat cut-off time was 30 seconds. The test substances and vehicle were orally administered 60 min before testing. Results are given in Table 2 (nt=not tested; *denotes statistical significance achieved).

cytochrome P450 enzymes = assay: Metabolism by cytochrome P450 enzymes; format: in vitro ADME
CYP 2D6 = CYP 2D6 (Homo sapiens, UniProt P10635); assay: CYP 2D6 inhibition, substrate based assay; format: in vitro ADME
Experimental: (§1) CYP 2D6 inhibition assays were conducted according to the method of Ono et al. (1996—Xenobiotica, 26: 681-693). 5-HT Transporter binding assays were conducted according to the method of Tatsumi et al. (1997—Eur. J. Pharmacol., 340: 249-258). NA Transporter binding assays were conducted according to the method of Pacholczyk et al. (1991—Nature, 350: 350-354).

Pharmacokinetic profile = format: in vivo; conditions: compared with nefopam
NA Transporter = NA Transporter (Homo sapiens, UniProt P23975); assay: NA Transporter binding assay (NRI)
Experimental: as §1

Behavioural Despair Test = format: in vivo, mouse; conditions: 30 minutes before the test, * = statistical significance
Experimental: Compounds of the invention have been evaluated in the Behavioural Despair Test, a model which detects antidepressant activity.
The Behavioural Despair Test was conducted according to the method of Porsolt et al., (1977—Arch. Int. Pharmacodyn., 229:327-336). Mice forced to swim in a situation from which they cannot escape rapidly become immobile. Antidepressants decrease the duration of immobility.
Mice (20-27 g male Rj: NMRI) were individually placed in a cylinder (height=24 cm, diameter=13 cm) containing 10 cm water (22° C.), from which they cannot escape. The mice were placed in the water for 6 minutes and the duration of immobility during the last 4 minutes was measured. All compounds were administered i.p. 30 minutes before the test, and compared with a vehicle control group. Results are given in Table 5 (nt=not tested; *denotes statistical significance achieved).

[2] = Morphine challenge assay (morphine-induced emesis in ferrets); format: in vivo, ferret; conditions: for % Reduction in no of retches/vomits: 3 mg/kg ip, 60 min before morphine 0.125 mg/Kg s.c., * = statistical significance; for anti-emetic activity in the morphine-induced emesis model (in words): ferrets
Experimental: In this respect, compounds of the invention retain the low side-effect potential of nefopam while having greater efficacy and more favourable pharmacokinetic parameters for chronic use.
Morphine was administered (0.125 mg/Kg s.c.) to albino or fitch male ferrets (0.9-1.7 kg) to induce emesis. Emesis was characterized by rhythmic abdominal contractions which were either associated with the oral expulsion of solid or liquid material from the gastrointestinal tract (ie vomiting) or not associated with the passage of material (i.e. retching movements). The number of highly distinctive abdominal contractions was counted.
The test substances and vehicle were administered by intraperitoneal injection 60 min before morphine administration. Results are given in Table 4 (*denotes statistical significance achieved).

[3] = Formalin-induced paw licking in mouse; format: in vivo; conditions: * = statistical significance; for Nociception, Early Phase: licking time 0 to 5 minutes after formalin; for Nociception, Late Phase: licking time 20 to 30 minutes after formalin
Experimental: Compounds of the invention have also been evaluated in the formalin-induced paw licking model in mice. Compounds were evaluated for both an early stage response and a late stage response against duloxetine and nefopam as controls.
Inflammation was induced by subplantar injection of a 5% formalin solution (0.02 ml) into the mouse right hindpaw (20-25 g male Rj: NMRI). Hindpaw licking time was continuously recorded in a blinded fashion between 0 to 5 minutes (early phase) and between 20 to 30 minutes (late phase) after formalin injection (Hunskaar et al., 1985—J. Neurosci. Methods; 14:69-76).
The test substances and vehicle were orally administered 60 min before formalin injection. Results are given in Table 3 (nt=not tested; *denotes statistical significance achieved).

5-HT Transporter = 5-HT Transporter (Homo sapiens, UniProt P31645); assay: 5-HT Transporter binding assay (SRI)
Experimental: as §1

[4] = read-out: CYP 2D6 inhibition IC50

5-HT Transporter, sequence (P31645 whole entry): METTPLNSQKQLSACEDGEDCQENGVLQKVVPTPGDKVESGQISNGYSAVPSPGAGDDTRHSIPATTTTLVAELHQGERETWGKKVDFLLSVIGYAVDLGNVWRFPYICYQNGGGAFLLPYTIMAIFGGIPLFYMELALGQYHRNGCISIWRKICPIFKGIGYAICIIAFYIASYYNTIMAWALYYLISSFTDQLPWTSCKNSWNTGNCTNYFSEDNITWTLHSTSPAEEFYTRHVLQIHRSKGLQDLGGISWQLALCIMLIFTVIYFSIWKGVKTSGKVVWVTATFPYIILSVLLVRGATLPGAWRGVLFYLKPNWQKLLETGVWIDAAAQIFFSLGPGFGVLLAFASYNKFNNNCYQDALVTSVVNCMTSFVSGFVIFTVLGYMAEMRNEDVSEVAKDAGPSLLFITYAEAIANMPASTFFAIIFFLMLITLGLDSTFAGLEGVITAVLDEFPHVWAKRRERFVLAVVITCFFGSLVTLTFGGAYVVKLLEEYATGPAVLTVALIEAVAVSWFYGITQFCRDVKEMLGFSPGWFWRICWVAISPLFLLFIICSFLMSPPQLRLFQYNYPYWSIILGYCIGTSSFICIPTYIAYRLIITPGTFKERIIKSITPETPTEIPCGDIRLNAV
NA Transporter, sequence (P23975 whole entry): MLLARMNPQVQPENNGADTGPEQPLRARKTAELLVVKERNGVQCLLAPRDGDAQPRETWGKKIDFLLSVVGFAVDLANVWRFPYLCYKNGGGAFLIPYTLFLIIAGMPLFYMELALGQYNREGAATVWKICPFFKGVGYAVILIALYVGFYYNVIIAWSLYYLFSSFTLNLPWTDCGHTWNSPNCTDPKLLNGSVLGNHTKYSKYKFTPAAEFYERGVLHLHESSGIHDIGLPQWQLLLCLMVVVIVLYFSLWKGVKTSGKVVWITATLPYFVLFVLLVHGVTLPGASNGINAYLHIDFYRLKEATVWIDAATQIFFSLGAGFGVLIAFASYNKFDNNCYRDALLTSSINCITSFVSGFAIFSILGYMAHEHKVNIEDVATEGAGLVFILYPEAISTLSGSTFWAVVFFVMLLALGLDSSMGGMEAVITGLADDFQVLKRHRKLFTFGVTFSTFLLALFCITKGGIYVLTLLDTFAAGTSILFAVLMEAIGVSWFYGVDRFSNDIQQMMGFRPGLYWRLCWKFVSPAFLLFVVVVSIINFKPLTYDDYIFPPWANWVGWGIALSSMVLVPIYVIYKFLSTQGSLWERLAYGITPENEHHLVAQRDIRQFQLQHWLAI
CYP 2D6, sequence (P10635 whole entry): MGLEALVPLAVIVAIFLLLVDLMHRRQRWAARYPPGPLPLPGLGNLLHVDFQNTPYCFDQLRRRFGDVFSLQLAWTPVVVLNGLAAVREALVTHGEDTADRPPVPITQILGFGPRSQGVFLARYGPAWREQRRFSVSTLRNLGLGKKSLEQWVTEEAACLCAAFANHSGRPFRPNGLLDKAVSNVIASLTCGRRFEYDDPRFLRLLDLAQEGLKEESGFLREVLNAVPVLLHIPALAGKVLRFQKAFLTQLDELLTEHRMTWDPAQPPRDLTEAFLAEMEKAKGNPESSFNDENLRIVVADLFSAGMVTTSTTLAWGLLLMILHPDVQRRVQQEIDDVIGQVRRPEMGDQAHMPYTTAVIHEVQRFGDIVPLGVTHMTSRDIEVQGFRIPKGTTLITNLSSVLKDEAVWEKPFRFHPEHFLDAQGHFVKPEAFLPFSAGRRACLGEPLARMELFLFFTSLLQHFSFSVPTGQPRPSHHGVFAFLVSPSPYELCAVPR

COc1cccc(C2OCCN(C)Cc3cc(C#N)ccc32)c1 (single isomer, unassigned) [Example 1]
efficacy in the mouse hot-plate model (in words) [1]: greater efficacy than the racemate | Paw Latency (Sec) above control ([1]; 10 mg/kg po): 9* Sec | Paw Latency (Sec) above control ([1]; 30 mg/kg po): 5 s | Paw Latency (Sec) above control ([1]; 60 mg/kg po): 7* Sec | metabolism by cytochrome P450 enzymes (in words) (cytochrome P450 enzymes): metabolised by a range of cytochrome P450 enzymes | IC50 (CYP 2D6): 5700 nM | pharmacokinetic profile (in words) (Pharmacokinetic profile): greatly improved pharmacokinetic profile over the parent compound nefopam | IC50 (NA Transporter; read-out: IC50 vs NRI): 400 nM | Duration of Immobility (% change from ctrl) (Behavioural Despair Test; 10 mg/kg ip): −24* % | Duration of Immobility (% change from ctrl) (Behavioural Despair Test; 20 mg/kg ip): −8% | Duration of Immobility (% change from ctrl) (Behavioural Despair Test; 40 mg/kg ip): −61* % | Duration of Immobility (% change from ctrl) (Behavioural Despair Test; 80 mg/kg ip): −85* % | % Reduction in no of retches/vomits [2]: 91%* | anti-emetic activity in the morphine-induced emesis model (in words) [2]: anti-emetic | Nociception, Early Phase ([3]; 30 mg/kg po): −49% | Nociception, Late Phase ([3]; 30 mg/kg po): −46% | Nociception, Early Phase ([3]; 60 mg/kg po): −75%* | Nociception, Late Phase ([3]; 60 mg/kg po): −88%* | IC50 (5-HT Transporter): 8.9 nM

COc1cccc(C2OCCN(C)Cc3cc(C4CC4)ccc32)c1 (single isomer, unassigned) [Example 3, 8-cyclopropyl-5-methyl-1-(3-methoxy)phenyl-1,3,4,6-tetrahydro-5H-benz[f]-2,5-oxazocine]
Paw Latency (Sec) above control ([1]; 10 mg/kg po): 3 s | Paw Latency (Sec) above control ([1]; 30 mg/kg po): 6* Sec | Paw Latency (Sec) above control ([1]; 60 mg/kg po): 9* Sec | IC50 (CYP 2D6; [4]): 1100 nM | IC50 (NA Transporter): 46 nM | % Reduction in no of retches/vomits [2]: 89%* | anti-emetic activity in the morphine-induced emesis model (in words) [2]: anti-emetic | Nociception, Early Phase ([3]; 30 mg/kg po): −45% | Nociception, Late Phase ([3]; 30 mg/kg po): −51% | Nociception, Early Phase ([3]; 60 mg/kg po): −56%* | Nociception, Late Phase ([3]; 60 mg/kg po): −73%* | IC50 (5-HT Transporter): 5.2 nM

CNCC[C@H](Oc1cccc2ccccc12)c1cccs1 [Duloxetine]
Duration of Immobility (% change from ctrl) (Behavioural Despair Test; 10 mg/kg ip): −6% | Duration of Immobility (% change from ctrl) (Behavioural Despair Test; 20 mg/kg ip): −9% | Duration of Immobility (% change from ctrl) (Behavioural Despair Test; 40 mg/kg ip): −65* % | Duration of Immobility (% change from ctrl) (Behavioural Despair Test; 80 mg/kg ip): −100* % | Nociception, Early Phase ([3]; 30 mg/kg po): −49% | Nociception, Late Phase ([3]; 30 mg/kg po): −85%*

COc1cccc([C@H]2OCCN(C)Cc3cc(C#N)ccc32)c1 [Example 2, (1R)-8-cyano-5-methyl-1-(3-methoxy)phenyl-1,3,4,6-tetrahydro-5H-benz[f]-2,5-oxazocine]
Paw Latency (Sec) above control ([1]; 30 mg/kg po): 6 s | Paw Latency (Sec) above control ([1]; 60 mg/kg po): 1 s | IC50 (CYP 2D6): 9600 nM | IC50 (NA Transporter; read-out: IC50 vs NRI): 3800 nM | IC50 (5-HT Transporter; read-out: IC50 vs SRI): 120 nM

COc1cccc(C2OCCN(C)Cc3cc(C4CC4)ccc32)c1 (stereo not shown) [Example 4, 8-cyclopropyl-5-methyl-1-(3-methoxy)phenyl-1,3,4,6-tetrahydro-5H-benz[f]-2,5-oxazocine]
Paw Latency (Sec) above control ([1]; 30 mg/kg po): 5 s | Paw Latency (Sec) above control ([1]; 60 mg/kg po): 5 s | IC50 (CYP 2D6): > 10000 nM | IC50 (CYP 2D6; [4]): 10000 nM | IC50 (NA Transporter; read-out: IC50 as NRI): > 1000 nM | IC50 (NA Transporter; read-out: IC50 vs NRI): > 1000 nM | IC50 (5-HT Transporter; read-out: IC50 vs SRI): 21 nM

CN(C)CCCN1c2ccccc2CCc2ccccc21 [Imipramine]
Duration of Immobility (% change from ctrl) (Behavioural Despair Test; 32 mg/kg ip): −62* %

CN1CCOC(c2ccccc2)c2ccccc2C1 (stereo not shown) [Nefopam, reference compound]
% Reduction in no of retches/vomits [2]: 96%* | Nociception, Early Phase ([3]; 60 mg/kg po): −46% | Nociception, Late Phase ([3]; 60 mg/kg po): −26% | Nociception, Early Phase ([3]; 100 mg/kg po): −76%* | Nociception, Late Phase ([3]; 100 mg/kg po): −68%*
